System: Saccharomyces cerevisiae
Test: High-Life (High throughput replicative Lifespan measurement) flow cytometry assay in MEP yeast
Format: cell-based
Settings: 10 μM, 24 hours in culture, 3-4 replicate wells, repeat of screen hits
Protocol: Cells were labeled with NHS-fluorescein as described above, then diluted to 20 cells/μL in media. 80 μL/well was aliquoted to 384-well plates, which were covered with a breathable membrane and placed on a shaker platform in a humidified incubator. After 3 hours, the plates were removed from the incubator and each well was treated with 20 μL pre-warmed, 30° C. 5 μM β-estradiol in media. In the case of ibuprofen or compound-treated wells, the compound was diluted in this volume at a 5× concentration to achieve a final concentration of 10 μM, or 100 μM for ibuprofen. The plates were then returned to the incubator. At indicated times, one plate was removed from the incubator and placed on an autosampler cooled to 8° C. attached to a Stratedigm flow cytometer. The cytometer was set to automatically add and mix 20 μL of aqueous solution containing 60 μg/mL CF405M-WGA (Biotium 29028) and propidium iodide (Sigma P4864) prior to acquiring 80 μL of sample for each well.
In order to test the lifespan of model organisms on both a large-scale and with quick turn-around, a massively multiplexed method was developed to measure replicative lifespan in the short-lived model organisms Saccharomyces cerevisiae. The protocol uses green-fluorescent labeling to identify progenitor cells, red-fluorescent labeling to differentiate non-viable cells, and blue-fluorescent labeling of bud scars to determine replicative age (FIG. 1). Each parameter is measured using a flow cytometer.
To achieve high throughput, the measurement system was automated, and the assay was performed in 384-well plates. The assay was performed using an autosampler-equipped flow cytometer, in a volume of 100 μL. Growth of even a single cell and its progeny in such a small volume will result in nutrient starvation before the natural replicative lifespan is exhausted; therefore to circumvent this issue, High-Life experiments were performed in the background of the Mother Enrichment Program (MEP) (Lindstrom and Gottschling, Genetics. 2009 October; 183(2):413-22). MEP strains express a CRE recombinase fused to an estrogen-binding domain for only a short time after birth. In the presence of β-estradiol, the recombinase translocates to the nucleus where it can excise two essential genes that have been modified to contain the exogenous LoxP sequence. Addition of β-estradiol to the media thus renders newborn daughters inviable without affecting existing mother cells, preventing exponential growth of the cell population and nutrient depletion (FIG. 2A).
The High-Life method was then tested to determine if it was suitable to screening for compounds that extend replicative lifespan. […] The effect of these compounds on High-Life readings was assayed after 24 hours in culture at 10 μM concentration. As a positive control, ibuprofen was used.

COc1c(C)c2c(c(O)c1C/C=C(\C)CCC(=O)O)C(=O)OC2 [mycophenolic acid]
average High-Life readings (progenitor fraction viable vs CF405M intensity) relative to controls: at least slightly above controls

Reference: patent US20200108043A1, “COMPOUNDS AND COMPOSITIONS FOR EXTENDING LIFESPAN OF A SUBJECT” (YALE UNIVERSITY, priority 2017, published 2020)
